Patent publication US20090081197A1 (Palatin Technologies, Inc., priority 2007, published 2009)
Like-named read-outs stand apart in the source and are kept apart here. Positions of bridges follow the written chain, without caps; N, C: chain ends. Non-standard residues stand in square brackets, D forms with d. Residues, ends and D or L forms follow the SMILES beside them. No end group written: not given here. 2Nal = N[C@@H](Cc1ccc2ccccc2c1)C(=O)O; d2Nal = N[C@H](Cc1ccc2ccccc2c1)C(=O)O; Nle = CCCC[C@H](N)C(=O)O

Assays:
[1] = functional antagonists known not to cause PE response, cited from earlier work
MC4-R [2] = biological target: T1, MC4-R (Homo sapiens, UniProt P32245); assay: cAMP agonist stimulation, low receptor density system (0.1 ng/mL doxycycline); settings: 0.1 ng/mL doxycycline, low receptor density hMC4-R system; NDP-α-MSH maximal cAMP = 1.0
T1 sequence (P32245 whole entry): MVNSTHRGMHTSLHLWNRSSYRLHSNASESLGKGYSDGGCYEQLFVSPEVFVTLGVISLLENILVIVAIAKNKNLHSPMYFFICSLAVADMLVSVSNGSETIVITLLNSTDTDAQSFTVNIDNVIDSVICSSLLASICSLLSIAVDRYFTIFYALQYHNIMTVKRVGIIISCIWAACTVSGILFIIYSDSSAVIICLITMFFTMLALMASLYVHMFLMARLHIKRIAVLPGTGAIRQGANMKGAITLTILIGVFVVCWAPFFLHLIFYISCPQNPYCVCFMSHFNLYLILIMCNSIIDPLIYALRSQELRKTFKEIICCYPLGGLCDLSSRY

MC4-R [3] = biological target: T1, MC4-R; assay: cAMP agonist stimulation, high receptor density system (10 ng/mL doxycycline); settings: for Efficacy/Intrinsic Activity: 10 ng/mL doxycycline, high receptor density hMC4-R system, NDP-α-MSH maximal cAMP = 1.0
MC1-R [4] = biological target: T2, MC1-R (Mus musculus, UniProt Q01727); assay: Competitive inhibition assay using [I^125]-NDP-α-MSH, B-16 mouse melanoma cell membranes; format: binding; settings: for inhibition at 1 µM: 1 μM test compound, read-out: Inhibition at 1 μM (NDP-α-MSH) In Normal System, MC1-R; for Ki: read-out: Ki (nM) (NDP-α-MSH) In Normal System, MC1-R
T2 construct: B-16 mouse melanoma cells (containing MC1-R); endogenous in cells
T2 sequence (Q01727 whole entry): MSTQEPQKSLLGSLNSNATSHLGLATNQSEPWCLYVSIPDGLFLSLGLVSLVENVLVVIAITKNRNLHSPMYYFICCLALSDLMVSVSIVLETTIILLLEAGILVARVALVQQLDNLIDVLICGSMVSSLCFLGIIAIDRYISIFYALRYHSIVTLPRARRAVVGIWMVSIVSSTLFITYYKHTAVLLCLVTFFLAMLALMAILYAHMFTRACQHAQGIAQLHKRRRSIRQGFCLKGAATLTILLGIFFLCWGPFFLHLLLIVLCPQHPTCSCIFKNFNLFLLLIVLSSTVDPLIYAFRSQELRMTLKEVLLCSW
Method in brief: (§1)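 Tracer was 0.4 nM for MC3-R and MC5-R, 0.2 nM for MC4-R and 0.1 nM for MC1-R. Bound radioactivity was gamma-counted after filtration; values are triplicate means, with results below 0% reported as 0%.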

MC1-R [5] = biological target: T2, MC1-R; assay: cAMP functional activity assay in B-16 mouse melanoma cells; format: cell-based; settings: 1 μM concentration where stated
Description: (§2) General method for EC50 determination in functional activity assay. […] Data analysis and EC50 values were determined using nonlinear regression analysis with Prism Graph-Pad software.
(§3) Functional status. The agonist/antagonist status with respect to MC1-R, MC-3R, MC4-R and MC5-R of certain compounds of the invention was determined. Antagonistic activity was determined by measuring the inhibition of α-MSH-induced or NDP-α-MSH-induced cAMP levels following exposure to graded doses of compounds as in the preceding descriptions.

[6] = IP (and IN) food intake, mice; format: in vivo; settings: mouse, IP, 4 hours
Method in brief: (§4)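 Male Sprague-Dawley rats dosed IV (0.5-3, up to 10 mg/kg) or IP (0.5-10, up to 50 mg/kg); male C57BL/6 mice dosed IP. Change in food intake and body weight over 24 h post-dose versus 1-week vehicle baseline, with 48 and 72 h reversal checks.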

MC3-R [7] = biological target: T3, MC3-R (Homo sapiens, UniProt P41968); assay: Competitive inhibition assay using [I^125]-NDP-α-MSH, hMC3-R membranes; format: binding; design: expressed in transfected cells; settings: 1 μM test compound; read-out: Inhibition at 1 μM (NDP-α-MSH) In Normal System, MC3-R
T3 sequence (P41968 whole entry): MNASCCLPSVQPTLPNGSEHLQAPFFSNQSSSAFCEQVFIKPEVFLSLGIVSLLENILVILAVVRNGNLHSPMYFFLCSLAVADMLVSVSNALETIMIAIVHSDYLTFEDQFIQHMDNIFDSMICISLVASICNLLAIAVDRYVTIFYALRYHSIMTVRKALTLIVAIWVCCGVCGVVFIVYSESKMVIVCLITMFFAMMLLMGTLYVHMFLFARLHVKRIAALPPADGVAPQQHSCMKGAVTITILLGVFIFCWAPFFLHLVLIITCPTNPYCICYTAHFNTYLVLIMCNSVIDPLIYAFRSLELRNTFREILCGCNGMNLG
Method in brief: as §1

MC5-R [8] = biological target: T4, MC5-R (Homo sapiens, UniProt P33032); assay: Competitive inhibition assay using [I^125]-NDP-α-MSH, hMC5-R membranes; format: binding; design: expressed in transfected cells; settings: 1 μM test compound; read-out: Inhibition at 1 μM (NDP-α-MSH) In Normal System, MC5-R
T4 sequence (P33032 whole entry): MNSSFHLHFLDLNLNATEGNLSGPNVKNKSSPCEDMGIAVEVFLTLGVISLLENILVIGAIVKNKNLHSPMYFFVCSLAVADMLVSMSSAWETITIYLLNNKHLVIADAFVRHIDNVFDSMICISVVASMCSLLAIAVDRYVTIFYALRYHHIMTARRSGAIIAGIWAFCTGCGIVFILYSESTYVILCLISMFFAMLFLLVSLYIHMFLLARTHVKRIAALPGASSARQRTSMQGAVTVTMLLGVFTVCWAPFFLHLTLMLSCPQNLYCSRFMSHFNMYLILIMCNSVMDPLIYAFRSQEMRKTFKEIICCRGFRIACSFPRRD
Method in brief: as §1

MC4-R [9] = biological target: T1, MC4-R; assay: cAMP functional activity assay in HEK-293 cells, normal system; format: cell-based; design: expressed in transfected cells; host or cells: HEK-293
MC5-R [10] = biological target: T4, MC5-R; assay: cAMP functional activity assay in HEK-293 cells; format: cell-based; design: expressed in transfected cells; host or cells: HEK-293; settings: 1 μM concentration where stated
Description: as §2, §3

MC4-R [11] = biological target: T1, MC4-R; assay: Assay for neutral antagonist, Schild analysis (pA2) against NDP-α-MSH; format: cell-based; design: expressed in transfected cells; host or cells: HEK-293; settings: Schild analysis vs NDP-α-MSH; for Kb: read-out: pA2 value as antagonist at MC4-R in a normal system (converted)
Description: Assay for Neutral Antagonist. […] These studies were carried out in HEK-293 cells expressing the MC4-R receptor. Cells were incubated with the compounds in the presence of the agonist NDP-α-MSH and the extent of antagonism was measured by the decrease in the level of intracellular cAMP. Screening the compounds for antagonists was done at a single concentration of NDP-α-MSH (1.0 nM) over a compound concentration range of 0.5-5000 nM.
Experimental details were similar to the analysis for agonistic activity described above. Briefly, cells were pre-incubated for 30 minutes with the test compounds at concentrations between 0.5 nM and 5000 nM. The cells were then stimulated with NDP-α-MSH at a concentration of 1 nM for 1 hour. For Schild analysis, the interactions were studied using at least 3 concentrations of the compounds, separated by a log unit, over a full range of the agonist (0.005-5000 nM). cAMP levels was measured in the cell lysates after appropriate dilution. Nonlinear regression analysis with Prism Graph-Pad software was used for Schild analysis and to obtain EC50 values. pA2 values were derived from the Schild plot of the data.

MC4-R [12] = biological target: T1, MC4-R; assay: Competitive inhibition assay using [I^125]-NDP-α-MSH, hMC4-R membranes; format: binding; design: host or cells: TREx-293 (HEK-293 stably expressing Tet repressor); settings: 1 μM test compound; read-out: Inhibition at 1 μM (NDP-α-MSH) In Normal System, MC4-R
Method in brief: as §1

[13] = Penile erection induction in male rats; format: in vivo; settings: rat
Method in brief: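 Male Sprague-Dawley rats (200-250 g), groups of 4-8, dosed IV or ICV at various doses and observed individually for penile erections. Only statistically relevant increases over vehicle-control mean PEs count as induction; IV responses below 1.0 PEs/rat treated as equivocal, some retested ICV.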

[14] = ICV food intake and body weight change; format: in vivo; settings: rat, 1 nmol
Method in brief: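 Rats fitted with intracerebroventricular cannulas and fed ad libitum got a single ICV dose of vehicle or compound (1-3 nmol). Food intake and body-weight change over the 24 h after dosing were compared with a 1-week vehicle baseline. Values at 48 h and 72 h were also recorded to follow return to baseline.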

[15] = IV and IP food intake and body weight change, rats; format: in vivo; settings: rat, 10 mg/kg, 24 hours
Method in brief: as §4

MC3-R [16] = biological target: T3, MC3-R; assay: cAMP functional activity assay in HEK-293 cells; format: cell-based; design: expressed in transfected cells; host or cells: HEK-293; settings: 1 μM concentration where stated
Description: as §2, §3

human MC1-R = biological target: T5, human MC1-R (Homo sapiens, UniProt Q01726); assay: Competitive inhibition assay using [I^125]-NDP-α-MSH, human MC1-R (separate experiments); format: binding; settings: separate experiments with human MC1-R; read-out: Ki (nM) (NDP-α-MSH) in a normal system, human MC1-R
T5 construct: expressed in transfected cells
T5 sequence (Q01726 whole entry): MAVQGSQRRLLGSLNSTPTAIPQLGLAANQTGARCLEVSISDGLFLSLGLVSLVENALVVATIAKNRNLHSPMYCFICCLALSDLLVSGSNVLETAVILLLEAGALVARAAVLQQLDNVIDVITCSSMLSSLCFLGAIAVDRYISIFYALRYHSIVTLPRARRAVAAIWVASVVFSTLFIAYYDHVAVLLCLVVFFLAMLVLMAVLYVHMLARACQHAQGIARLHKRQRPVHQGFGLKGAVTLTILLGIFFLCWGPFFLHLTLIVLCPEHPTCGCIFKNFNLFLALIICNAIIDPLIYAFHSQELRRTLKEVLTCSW

[17] = normal system, 1 μM concentration where stated

| Compound | Efficacy/Intrinsic Activity (MC4-R [2]) | Efficacy/Intrinsic Activity (MC4-R [3]) | inhibition at 1 µM (MC1-R [4]) [%] | inhibition at 1 µM (MC3-R [7]) [%] | inhibition at 1 µM (MC5-R [8]) [%] | functional status at MC4-R in cAMP assay (MC4-R [9]; [17]) | Kb (MC4-R [11]) [nM] | inhibition at 1 µM (MC4-R [12]) [%] | also measured |
| --- | --- | --- | --- | --- | --- | --- | --- | --- | --- |
| AGRP (83-132): AgRP (83-132); functional antagonist known not to cause PE response (SSRRCVRLHESCLGQQVPCCDPCATCYCRFFNAFCYCRKLGTAMNPCSRT; ends and bridges not checked; cysteine pairing not given here) [reference compound] | None | None |  |  |  |  |  |  | Penile Erection ICV [1]: No; Penile Erection IV [1]: No |
| CC(C)C[C@@H]1CN(C(=O)[C@H](N)Cc2ccc(Cl)cc2Cl)[C@@H](CCCNC(=N)N)CN1CCc1ccc2ccccc2c1 [Example 4, N-{3-[1-[2(R)-Amino-3-(2,4-dichloro-phenyl)-propionyl]-5(R)-isobutyl-4-(2-naphthalen-2-yl-ethyl)-piperazin-2(S)-yl]-propyl}-guanidine] | None | None | 21 | 64 | 75 | no intrinsic activity (intrinsic activity below 0.1 (10%) is classified as inactive or having no intrinsic activity) | 20 | 99 | Ki (MC1-R [4]): 1360 nM; functional status at MC1-R in cAMP assay (MC1-R [5]): no intrinsic activity (intrinsic activity below 0.1 (10%) is classified as inactive or having no intrinsic activity); inhibition in vivo at 10 mg/kg ([6]; 10 mg/kg, read-out: maximal decrease in food intake): 60%; functional status at MC5-R in cAMP assay (MC5-R [10]): partial agonist (intrinsic activity between 0.1 (10%) and 0.7 (70%) is classified as a partial agonist) |
| N=C(N)NCCC[C@H]1C(=O)N2C(CC[C@@H]2COc2ccc3ccccc3c2)N1C(=O)[C@@H](Cc1ccc(Cl)cc1Cl)NC(=O)[C@@H]1Cc2ccccc2CN1 (stereo partly drawn) [Example 22, (S)-1,2,3,4-Tetrahydro-isoquinoline-3-carboxylic acid {(R)-1-(2,4-dichloro-benzyl)-2-[(2S,5R)-2-(3-guanidino-propyl)-5-(naphthalen-2-yloxymethyl)-3-oxo-hexahydro-pyrrolo[1,2-a]imidazol-1-yl]-2-oxo-ethyl}-amide] | None | 0.30 | 75 | 88 | 96 | antagonist | 7.94 | 100 | Ki (MC1-R [4]): 111 nM; Penile Erection IV ([13]; IV): No; penile erection response ([13]; IV): no penile erection response; decrease in food intake ([14]; 24 hours): 22%; EC50 (MC4-R [3]): 64 nM |
| cyclo 2,7[Ac-Nle-Asp-His-D-Nal 2-Arg-Trp-Lys]-NH2 [SHU-9119] |  |  |  |  |  |  |  |  | Penile Erection ICV [1]: No; Penile Erection IV [1]: No |
| C[C@@H]1CN(C(=O)[C@H](N)Cc2ccc(Cl)cc2Cl)[C@@H](CCCNC(=N)N)CN1CCc1ccc2ccccc2c1 [Example 11, N-{3-[1-[2(R)-Amino-3-(2,4-dichloro-phenyl)-propionyl]-5(R)-methyl-4-(2-naphthalen-2-yl-ethyl)-piperazin-2(S)-yl]-propyl}-guanidine] | None | 0.49 | 20 | 72 | 65 | antagonist | 15.8 | 99 | functional status at MC1-R in cAMP assay (MC1-R [5]): inactive; maximal decrease in food intake ([15]; IP): 19%; maximal decrease in food intake ([15]; IV): 87%; maximal decrease in food intake ([6]; 3 mg/kg): 10%; maximal decrease in food intake ([6]; 10 mg/kg): 30%; functional status at MC3-R in cAMP assay (MC3-R [16]): inactive; functional status at MC5-R in cAMP assay (MC5-R [10]): inactive; EC50 (MC4-R [3]): 61 nM |
| CCCC[C@H](NC(C)=O)C(=O)N[C@H]1CC(=O)NCCCC[C@@H](C(=O)O)NC(=O)[C@H](Cc2ccc3ccccc3c2)NC(=O)[C@H](CCCNC(=N)N)NC(=O)[C@@H](Cc2ccc3ccccc3c2)NC(=O)[C@H](Cc2c[nH]cn2)NC1=O [Example 34, Ac-Nle-cyclo(Asp-His-D-Nal 2-Arg-Nal 2-Lys)-OH] (Ac-[Nle]DH[d2Nal]R[2Nal]K-OH; lactam 2-7) | None | None | 102 | 98 | 100 |  | 7.94 | 100 | Ki (human MC1-R): 0.25 nM; Penile Erection ICV ([13]; ICV): No; PE efficacy ([13]; ICV, 3 nanomole): inactive; 24 hour increase in food intake [14]: 12 g; increase in body weight ([14]; 24 hours): 16 g; functional status at MC4-R in cAMP assay (MC4-R [9]; at 1 nM dose): inactive |
| N-{3-[1-[2(R)-Amino-3-(2-methyl, 4-chloro-phenyl)-propionyl]-5(R)-methyl-4-(2-naphthalen-2-yl-ethyl)-piperazin-2(S)-yl]-propyl}-guanidine [Example 26] |  |  |  |  |  | no intrinsic activity (intrinsic activity below 0.1 (10%) is classified as inactive or having no intrinsic activity) |  |  | pA2 value as antagonist at MC4-R in a normal system (MC4-R [11]): 8.3 |
